This is an account of results in patent publication US9090633B2, “Substituted 4-(arylamino) selenophenopyrimidine compounds and methods of use thereof” (KASINA LAILA INNOVA PHARMACEUTICALS PRIVATE LIMITED, priority 2010, dated 2013).

Assay [1] relates to human lung carcinoma A549 cells. The assay can be described thus: MTT based cell proliferation assay, A549. To be noted: for IC50: A549, 72 h, read-out: Cell proliferation inhibition in A549 (Lung carcinoma), IC50. On the procedure: (§1) MTT [3-(4,5-dimethylthiazol-2-yl)-2,5-diphenyltetrazolium bromide incorporation based cell proliferation assay was performed using standard procedure. […] The assay was carried out according to the instructions provided by the vendor. […] Vehicle control culture wells received only a maximum of 0.5% DMSO. Thereafter, 0.5 mg/ml of MTT reagent was added to each well and the microplate was incubated further for 4 h at 37° C. in presence of 5% CO2. Finally, the cells were solubilized by adding solubilizing solution and allowed to incubate at 37° C. overnight. After complete solubilization of the formazan crystals the absorbance was read at 540 nm in a microplate reader (BioRad, USA).
(§2) The evaluation of cell proliferation inhibitory activities of the compounds was done in two phases—(1) Screening, and (2) half-maximal inhibitory concentration (IC50) determination. In the screening phase, the cells were treated with different concentrations.

Assay [2] concerns human prostate DU145 cells. Briefly: MTT based cell proliferation assay, DU145. To be noted: for IC50: DU-145, 72 h, read-out: Cell proliferation inhibition in DU145 (Prostate carcinoma), IC50. On the procedure:
as §1, §2

For assay [3], the system named is human colorectal carcinoma HT29 cells. The assay can be described thus: MTT based cell proliferation assay, HT29. As to conditions: for IC50: HT-29, 72 h, read-out: Cell proliferation inhibition in HT29 (Colon carcinoma), IC50. On the procedure:
as §1, §2

[4] abbreviates: Homo sapiens, A549, read-out: Cell proliferation inhibition in A549 (Lung carcinoma).
[5] abbreviates: Homo sapiens, DU-145, read-out: Cell proliferation inhibition in DU145 (Prostate carcinoma).
Where [6] appears, read: Homo sapiens, HT-29, read-out: Cell proliferation inhibition in HT29 (Colon carcinoma).

On to `Brc1cccc(Nc2ncnc3[se]c4c(c23)CCNC4)c1` [Compound 20, (3-bromophenyl)-5,6,7,8-tetrahydropyrimidino[5′,6′-5,4]selenopheno[2,3-c]pyridin-4-ylamine], for which the inhibition at 22.421 µM worked out at 0.45% in assay [1] (setting [4]), 13.4% in assay [2] (setting [5]) and 8.96% in assay [3] (setting [6]).

Regarding `c1cnc(Nc2ncnc3[se]c4c(c23)CCCC4)cn1` [Compound 5, pyrazin-2-yl-5,6,7,8-tetrahydrobenzo[1,2-b]pyrimidino[5,6-d]selenophen-4-ylamine], the IC50 in assay [2] (Homo sapiens) was determined as 16.4 µM.

Take `O=C1CCc2c([se]c3ncnc(Nc4ccc(F)c(Cl)c4)c23)C1` [Compound 26, 4-[(3-chloro-4-fluorophenyl)amino]-5,6,8-trihydrobenzo[2,1-b]pyrimidino[5,4-d]selenophen-7-one]: the inhibition at 23.148 µM in assay [1] (setting [4]) turned out to be 17.5%; in assay [2] (setting [5]), 65.1%; in assay [3] (setting [6]) it was 30.9%.

Consider `NS(=O)(=O)c1ccc(Nc2ncnc3[se]c4c(c23)CCCC4)cc1` [Compound 12, 4-(5,6,7,8-tetrahydrobenzo[1,2-b]pyrimidino[5,6-d]selenophen-4-ylamino)benzenesulfonamide], for which, in assay [3] (setting [6]), the inhibition at 24.449 µM was 15.6%.

Take `C#Cc1cccc(Nc2ncnc3[se]c4c(c23)CCNC4)c1` [Compound 21, (3-ethynylphenyl)-5,6,7,8-tetrahydropyrimidino[5′,6′-5,4]selenopheno[2,3-c]pyridine-4-ylamine]: the results for the inhibition at 25.575 µM in assay [1] (setting [4]), in assay [2] (setting [5]) and in assay [3] (setting [6]) were 11.6%, 12.9% and 4.66%, respectively.

In the case of `Fc1ccc(Nc2ncnc3[se]c4c(c23)CCNC4)cc1Cl` [Compound 18, (3-chloro-4-fluorophenyl)-5,6,7,8-tetrahydropyrimidino[5′,6′-5,4]selenopheno[2,3-c]pyridine-4-ylamine], the values for the IC50 in assay [1] (Homo sapiens), in assay [2] (Homo sapiens) and in assay [3] (Homo sapiens) were 82.6 µM, 42.5 µM and 39.1 µM, respectively.

With `Clc1cc(Nc2ncnc3[se]c4c(c23)CCCC4)cc(Cl)n1` [Compound 3, (2,6-dichloropyridin-4-yl)-5,6,7,8-tetrahydrobenzo[1,2-b]pyrimidino[5,6-d]selenophen-4-ylamine], the inhibition at 22.935 µM in assay [1] (setting [4]) amounted to 15.6%; in assay [2] (setting [5]), 18.3%; in assay [3] (setting [6]), 13.8%.

Turning to `Cc1c(C(=O)O)[se]c2ncnc(Nc3ccc(F)c(Cl)c3)c12` [Compound 15, 4-[(3-chloro-4-fluorophenyl)amino]-5-methylselenopheno[2,3-d]pyrimidine-6-carboxylic acid], the inhibition at 240.539 µM stood at 25% in assay [1] (setting [4]), 41.2% in assay [2] (setting [5]) and 18.9% in assay [3] (setting [6]).

Regarding `Clc1cc(Nc2ncnc3[se]c4c(c23)CCCC4)nc(Cl)n1` [Compound 4, (2,6-dichloropyrimidin-4-yl)-5,6,7,8-tetrahydrobenzo[1,2-b]pyrimidino[5,6-d]selenophen-4-ylamine], the IC50 in assay [1] (Homo sapiens) was determined as 42.3 µM; in assay [2] (Homo sapiens), 37.1 µM; in assay [3] (Homo sapiens), 162 µM.

As to `Brc1cc(Nc2ncnc3[se]c4c(c23)CCCC4)c(Br)s1` [Compound 6], the IC50 turned out to be 49 µM in assay [1] (Homo sapiens) and 42.4 µM in assay [2] (Homo sapiens). Also, the inhibition at 18.868 µM in assay [3] (setting [6]) came to 15.5%.

On to `Brc1cncc(Nc2ncnc3[se]c4c(c23)CCCC4)c1` [Compound 2, (5-bromo(3-pyridyl))-5,6,7,8-tetrahydrobenzo[1,2-b]pyrimidino[5,6-d]selenophen-4-ylamine], for which the inhibition at 22.421 µM in assay [1] (setting [4]) worked out at 20.7%; in assay [2] (setting [5]), 13.1%; in assay [3] (setting [6]), 11.1%.

Take `CS(=O)(=O)N1CCc2c([se]c3ncnc(Nc4ccc(F)c(Cl)c4)c23)C1` [Compound 19, 4[(3-chloro-4-fluorophenyl)amino]-7-(methylsulfonyl)-5,6,7,8-tetrahydro-pyrimidino[5′,4′-5,4]selenopheno[2,3-c]pyridine]: the inhibition at 25 µM in assay [1] (setting [4]) was 27.4%; in assay [2] (setting [5]), 29.2%; in assay [3] (setting [6]), 3.07%.

In the case of `CC(C)(C)c1cc2ncnc(Nc3ccc(F)c(Cl)c3)c2[se]1` [Compound 28, [6-(tert-butyl)selenopheno[2,3-e]pyrimidin-4-yl](3-chloro-4-fluorophenyl)amine], the IC50 in assay [1] (Homo sapiens) turned out to be 109 µM; in assay [2] (Homo sapiens), 82.7 µM; in assay [3] (Homo sapiens), 71 µM.

On to `Fc1ccc(Nc2ncnc3c2[se]c2ncccc23)cc1Cl` [Compound 31, (3-chloro-4-fluorophenyl)pyrimidino[4′,5′-5,4]selenopheno[2,3-b]pyridin-4-ylamine], for which the inhibition at 25 µM in assay [1] (setting [4]) turned out to be 30.2%; in assay [2] (setting [5]), 22%; in assay [3] (setting [6]), 5.21%.

Take `Fc1ccc(Nc2ncnc3c2[se]c2ccccc23)cc1Cl` [Compound 30, benzo[d]pyrimidino[5,6-b]selenophen-4-yl(3-chloro-4-fluorophenyl)amine]: the IC50 in assay [1] (Homo sapiens) turned out to be 21.8 µM; in assay [2] (Homo sapiens), 26.8 µM. Further, the inhibition at 25 µM in assay [3] (setting [6]) was found to be 38.1%.

As for `Cc1[se]c2ncnc(Nc3ccc(F)c(Cl)c3)c2c1-c1ccccc1` [Compound 16], the IC50 in assay [1] (Homo sapiens) was 44.1 µM; in assay [2] (Homo sapiens), 111 µM. Moreover, in assay [3] (setting [6]), the inhibition at 66.079 µM was 38.6%.

`Fc1ccc(Nc2ncnc3cc(-c4ccccc4)[se]c23)cc1Cl` [Compound 29, (3-chloro-4-fluorophenyl)(6-phenylselenopheno[2,3-e]pyrimidin-4-yl)amine]: the inhibition at 30 µM in assay [1] (setting [4]) is 45.5%. Further, the results for the inhibition at 25 µM in assay [2] (setting [5]) and in assay [3] (setting [6]) were 30.8% and 43.1%, respectively.

In the case of “ethyl 4-[(3-chloro-4-fluorophenyl)amino]-5-methylthioselenopheno[3,4-d]pyrimidine-7-carboxylate [Compound 32]”, in assay [1] (at 25 μM), the “Cell proliferation inhibition in A549 (Lung carcinoma)” value turned out to be 26.1% at 25 μM. The “Cell proliferation inhibition in DU145 (Prostate carcinoma)” value in assay [2] (at 25 μM) is 9.75% at 25 μM. The “Cell proliferation inhibition in HT29 (Colon carcinoma)” value in assay [3] (at 25 μM) is 12.97% at 25 μM.

For `CC(C)(C)c1c[se]c2ncnc(Nc3ccc(F)c(Cl)c3)c12` [Compound 13, [5-(tert-butyl)selenopheno[3,2-e]pyrimidin-4-yl](3-chloro-4-fluorophenyl)amine], the IC50 in assay [1] (Homo sapiens) was 15 µM; in assay [2] (Homo sapiens) it was 41.6 µM; in assay [3] (Homo sapiens) it was 37.9 µM.

Take `Fc1ccc(Nc2ncnc3c4c([se]c23)CCCC4)cc1Cl` [Compound 27, (3-chloro-4-fluorophenyl)-6,7,8,9-tetrahydrobenzo[1,2-d]pyrimidino[5,6-b]selenophen-4-ylamine]: the IC50 turned out to be 33.5 µM in assay [1] (Homo sapiens), 11.4 µM in assay [2] (Homo sapiens) and 117 µM in assay [3] (Homo sapiens).

For the molecule `Fc1ccc(Nc2ncnc3[se]c4c(c23)CCCC4)cc1Cl` [Compound 1, (3-chloro-4-fluorophenyl)-5,6,7,8-tetrahydrobenzo[1,2-b]pyrimidino[5,6-d]selenophen-4-ylamine], in assay [2] (Homo sapiens), the IC50 stood at 8.37 µM.

For `Clc1ccc(Nc2ncnc3[se]c4c(c23)CCNC4)cc1Cl` [Compound 22, (3,4-dichlorophenyl)-5,6,7,8-tetrahydropyrimidino[5′,6′-5,4]selenopheno[2,3-c]pyridin-4-ylamine], the inhibition at 22.935 µM in assay [1] (setting [4]) turned out to be 16.7%; in assay [2] (setting [5]), 36.6%; in assay [3] (setting [6]), 28.4%.

`Cc1c(C(=O)NCCCl)[se]c2ncnc(Nc3ccc(F)c(Cl)c3)c12` [Compound 25]: in assay [1] (setting [4]), the inhibition at 19.92 µM worked out at 0.19%. The figures for the IC50 in assay [2] (Homo sapiens) and in assay [3] (Homo sapiens) were 8.51 µM and 9.24 µM, respectively.

For the molecule `Cc1c(C(N)=O)[se]c2ncnc(Nc3ccc(F)c(Cl)c3)c12` [Compound 17, 4-[(3-chloro-4-fluorophenyl)amino]-5-methylselenopheno[2,3-d]pyrimidine-6-carboxamide], the inhibition at 25 µM in assay [1] (setting [4]) was determined as 21.4%; in assay [2] (setting [5]), 44.4%.

On to `COC(=O)c1cc(Nc2ncnc3[se]c4c(c23)CCNC4)c(C)s1` [Compound 23, methyl 5-methyl-4-(5,6,7,8-tetrahydropyrimidino[5′,6′-5,4]selenopheno[2,3-c]pyridin-4-ylamino)thiophene-2-carboxylate], for which the inhibition at 22.472 µM was determined as 8.64% in assay [1] (setting [4]), 5.08% in assay [2] (setting [5]) and 15.4% in assay [3] (setting [6]).

As for `Fc1ccc(Nc2ncnc3[se]cc(-c4ccccc4)c23)cc1Cl` [Compound 14, (3-chloro-4-fluorophenyl)(5-phenylselenopheno[3,2-e]pyrimidin-4-yl]amine], the IC50 in assay [1] (Homo sapiens) is 121 µM; in assay [2] (Homo sapiens), 105 µM.

As to `CC(C)(C)c1cc(Nc2ncnc3[se]c4c(c23)CCCC4)c(C(N)=O)s1` [Compound 7, (5-tert-butyl)-3-(5,6,7,8-tetrahydrobenzo[1,2-b]pyrimidino[5,6-d]selenophen-4-ylamino)thiophene-2-carboxamide], the IC50 in assay [3] (Homo sapiens) stood at 9.3 µM.
